Experimental data from patent US8895471B2, “Chiral3-(benzylsulfinyl)-5,5-dimethyl-4,5-dihydroisoxazole derivatives and 5,5-dimethyl-3-[(1h-pyrazol-4-ylmethyl)sulfinyl]-4,5-dihyddroisoxazole derivatives, method for the production thereof, and use of same as herbicides and plant growth regulators” (Bayer Cropscience AG, priority 2007, dated 2014).

Columns and labels:
[1] = system: Alopecurus myosuroides (black-grass); assay: Pre-emergence herbicidal effect, ALOMY; format: in vivo; settings: scored after about 3 weeks
From the text: (§1) 1. Pre-emergence herbicidal effect and crop plant compatibility
(§2) • Seeds of monocotyledonous or dicotyledonous weed plants or crop plants are planted in wood-fiber pots in sandy loam and covered with soil. The compounds according to the invention, formulated in the form of wettable powders (WP), are then applied as aqueous suspension at a water application rate of 600 l/ha (converted) with the addition of 0.2% of wetting agent to the surface of the covering soil. • After the treatment, the pots are placed in a greenhouse and kept under good growth conditions for the test plants. After about 3 weeks, the effect of the preparations is scored visually in comparison with untreated controls (herbicidal effect in percent (%): 100% activity=the plants have died, 0% activity=like control plants). • As shown by the results, the compounds according to the invention have good herbicidal pre-emergence activity against a broad spectrum of weed grasses and broad-leaved weeds. […] Some of the compounds according to the invention have high selectivity and are therefore suitable for controlling unwanted vegetation in agricultural crops by the pre-emergence method.
(§3) • ALOMY Alopecurus myosuroides (black-grass) • LOLMU: Lolium multiflorum (Italian ryegrass) • SETVI: Setaria viridis (green foxtail) • BRSNW: Brassica napus (winter rape) • ZEAMX: Zea mays (corn) 2. Post-Emergence Herbicidal Effect and Crop Plant Compatibility • Seeds of monocotyledonous and dicotyledonous weed and crop plants are placed in sandy loam in wood fibre pots, covered with soil and cultivated in a greenhouse under good growth conditions. 2 to 3 weeks after sowing, the test plants are treated at the one-leaf stage. The compounds according to the invention, formulated in the form of wettable powders (WP), are then applied by spraying as aqueous suspension at a water application rate of 600 l/ha (converted) with the addition of 0.2% of wetting agent to the green parts of the plants. After the test plants have been kept in the greenhouse under optimum growth conditions for about 3 weeks, the activity of the preparations is rated visually in comparison to untreated controls (herbicidal activity in percent (%): 100% activity=the plants have died, 0% activity=like control plants). • As shown by the results, the compounds according to the invention have good herbicidal post-emergence activity against a plurality of weed grasses and broad-leaved weeds. […] Some of the compounds according to the invention have high selectivity and are therefore suitable for controlling unwanted vegetation in agricultural crops by the post-emergence method.

[2] = system: Brassica napus (winter rape); assay: Pre-emergence herbicidal effect and crop plant compatibility, BRSNW; format: in vivo; settings: scored after about 3 weeks
From the text: as §1, §2, §3

[3] = system: Setaria viridis (green foxtail); assay: Pre-emergence herbicidal effect, SETVI; format: in vivo; settings: scored after about 3 weeks
From the text: as §1, §2, §3

[4] = system: Lolium multiflorum (Italian ryegrass); assay: Pre-emergence herbicidal effect, LOLMU; format: in vivo; settings: scored after about 3 weeks
From the text: as §1, §2, §3

[5] = system: Avena fatua, Stellaria media, Echinochloa crus-galli, Lolium multiflorum, Setaria viridis, Amaranthus retroflexus, Viola tricolor, Veronica persica and …; assay: Pre-emergence herbicidal activity against harmful plants; format: in vivo; settings: application rate of 0.32 kg and less of active substance per hectare
From the text: as §1, §2

[6] = system: Avena fatua, Echinochloa crus-galli, Lolium multiflorum, Setaria viridis and Alopecurus myosuroides; assay: Post-emergence herbicidal effect and crop plant compatibility; format: in vivo; settings: application rate of 0.32 kg and less of active substance per hectare
From the text: as §3

[7] = system: Zea mays (corn); assay: Pre-emergence herbicidal effect and crop plant compatibility, ZEAMX; format: in vivo; settings: scored after about 3 weeks
From the text: as §1, §2, §3

[8] = system: POLCO; assay: Pre-emergence herbicidal effect, POLCO; format: in vivo; settings: scored after about 3 weeks
From the text: as §1, §2

[9] = system: VERPE; assay: Pre-emergence herbicidal effect, VERPE; format: in vivo, Veronica persica; settings: scored after about 3 weeks
From the text: as §1, §2

CC1(C)CC([S+]([O-])Cc2c(F)cccc2F)=NO1 (racemic) [Racemate of 6 (S config.) and 228 (R config.), 3-[(2,6-difluorobenzyl)sulfinyl]-5,5-dimethyl-4,5-dihydroisoxazole, reference compound]
herbicidal effect in percent, ALOMY ([1]; 80 g of active compound/ha): 70%
herbicidal effect in percent, ALOMY ([1]; 320 g of active compound/ha): 100%
herbicidal effect in percent, BRSNW (crop plant) ([2]; 80 g of active compound/ha): 20%
herbicidal effect in percent, BRSNW (crop plant) ([2]; 320 g of active compound/ha): 30%
herbicidal effect in percent, SETVI ([3]; 80 g of active compound/ha): 40%
herbicidal effect in percent, SETVI ([3]; 320 g of active compound/ha): 40%
herbicidal effect in percent, LOLMU ([4]; 80 g of active compound/ha): 80%
herbicidal effect in percent, LOLMU ([4]; 320 g of active compound/ha): 80%

CC1(C)CC([S@@+]([O-])Cc2c(F)cccc2F)=NO1 [Compound 6, 3-[(S)-(2,6-Difluorobenzyl)sulfinyl]-5,5-dimethyl-4,5-dihydroisoxazole]
herbicidal effect in percent, ALOMY ([1]; 80 g of active compound/ha): 90%
herbicidal effect in percent, ALOMY ([1]; 320 g of active compound/ha): 100%
herbicidal activity against harmful plants, pre-emergence method [5]: very good herbicidal activity
herbicidal effect in percent, BRSNW (crop plant) ([2]; 80 g of active compound/ha): 0%
herbicidal effect in percent, BRSNW (crop plant) ([2]; 320 g of active compound/ha): 0%
herbicidal effect in percent, SETVI ([3]; 80 g of active compound/ha): 60%
herbicidal effect in percent, SETVI ([3]; 320 g of active compound/ha): 100%
herbicidal activity against harmful plants, post-emergence method [6]: very good herbicidal activity
herbicidal effect in percent, LOLMU ([4]; 80 g of active compound/ha): 80%
herbicidal effect in percent, LOLMU ([4]; 320 g of active compound/ha): 100%

CC1(C)CC([S@+]([O-])Cc2c(F)cccc2F)=NO1 [Compound 228, 3-[(R)-(2,6-difluorobenzyl)sulfinyl]-5,5-dimethyl-4,5-dihydroisoxazole]
herbicidal effect in percent, ALOMY ([1]; 80 g of active compound/ha): 60%
herbicidal effect in percent, ALOMY ([1]; 320 g of active compound/ha): 80%
herbicidal activity against harmful plants, pre-emergence method [5]: very good herbicidal activity
herbicidal effect in percent, BRSNW (crop plant) ([2]; 80 g of active compound/ha): 0%
herbicidal effect in percent, BRSNW (crop plant) ([2]; 320 g of active compound/ha): 0%
herbicidal effect in percent, SETVI ([3]; 80 g of active compound/ha): 0%
herbicidal effect in percent, SETVI ([3]; 320 g of active compound/ha): 50%
herbicidal activity against harmful plants, post-emergence method [6]: very good herbicidal activity
herbicidal effect in percent, LOLMU ([4]; 80 g of active compound/ha): 0%
herbicidal effect in percent, LOLMU ([4]; 320 g of active compound/ha): 0%

Cn1nc(C(F)(F)F)c(C[S@@+]([O-])C2=NOC(C)(C)C2)c1OC(F)F [Compound 664, 3-[(R)-{[5-(difluoromethoxy)-1-methyl-3-(trifluoromethyl)-1H-pyrazol-4-yl]methyl}sulfinyl]-5,5-dimethyl-4,5-dihydroisoxazole]
herbicidal activity against harmful plants, pre-emergence method [5]: very good herbicidal activity
herbicidal activity against harmful plants, post-emergence method [6]: very good herbicidal activity

CC1(C)CC([S@@+]([O-])Cc2c(Cl)cccc2Cl)=NO1 [Compound 32, 3-[(S)-(2,6-Dichlorobenzyl)sulfinyl]-5,5-dimethyl-4,5-dihydroisoxazole]
herbicidal effect in percent, ALOMY ([1]; 20 g of active compound/ha): 80%
herbicidal effect in percent, ALOMY ([1]; 80 g of active compound/ha): 100%
herbicidal effect in percent, ZEAMX (crop plant) ([7]; 20 g of active compound/ha): 0%
herbicidal effect in percent, ZEAMX (crop plant) ([7]; 80 g of active compound/ha): 0%
herbicidal activity against harmful plants, pre-emergence method [5]: very good herbicidal activity
herbicidal effect in percent, POLCO ([8]; 20 g of active compound/ha): 40%
herbicidal effect in percent, POLCO ([8]; 80 g of active compound/ha): 80%
herbicidal activity against harmful plants, post-emergence method [6]: very good herbicidal activity
herbicidal effect in percent, VERPE ([9]; 20 g of active compound/ha): 40%
herbicidal effect in percent, VERPE ([9]; 80 g of active compound/ha): 100%

Cn1nc(C(F)(F)F)c(C[S@+]([O-])C2=NOC(C)(C)C2)c1OC(F)F [Compound 483, 3-[(S)-{[5-(Difluoromethoxy)-1-methyl-3-(trifluoromethyl)-1H-pyrazol-4-yl]methyl}sulfinyl]-5,5-dimethyl-4,5-dihydroisoxazole]
herbicidal effect in percent, ALOMY ([1]; 20 g of active compound/ha): 80%
herbicidal effect in percent, ALOMY ([1]; 80 g of active compound/ha): 100%
herbicidal activity against harmful plants, pre-emergence method [5]: very good herbicidal activity
herbicidal effect in percent, BRSNW (crop plant) ([2]; 20 g of active compound/ha): 0%
herbicidal effect in percent, BRSNW (crop plant) ([2]; 80 g of active compound/ha): 0%
herbicidal effect in percent, SETVI ([3]; 20 g of active compound/ha): 80%
herbicidal effect in percent, SETVI ([3]; 80 g of active compound/ha): 90%
herbicidal activity against harmful plants, post-emergence method [6]: very good herbicidal activity
herbicidal effect in percent, LOLMU ([4]; 20 g of active compound/ha): 60%
herbicidal effect in percent, LOLMU ([4]; 80 g of active compound/ha): 100%

CC1(C)CC([S@+]([O-])Cc2c(Cl)cccc2Cl)=NO1 [Compound 254, 3-[(R)-(2,6-dichlorobenzyl)sulfinyl]-5,5-dimethyl-4,5-dihydroisoxazole]
herbicidal effect in percent, ALOMY ([1]; 20 g of active compound/ha): 0%
herbicidal effect in percent, ALOMY ([1]; 80 g of active compound/ha): 60%
herbicidal effect in percent, ZEAMX (crop plant) ([7]; 20 g of active compound/ha): 0%
herbicidal effect in percent, ZEAMX (crop plant) ([7]; 80 g of active compound/ha): 0%
herbicidal activity against harmful plants, pre-emergence method [5]: very good herbicidal activity
herbicidal effect in percent, POLCO ([8]; 20 g of active compound/ha): 10%
herbicidal effect in percent, POLCO ([8]; 80 g of active compound/ha): 20%
herbicidal activity against harmful plants, post-emergence method [6]: very good herbicidal activity
herbicidal effect in percent, VERPE ([9]; 20 g of active compound/ha): 0%
herbicidal effect in percent, VERPE ([9]; 80 g of active compound/ha): 20%

CC1(C)CC([S+]([O-])Cc2c(Cl)cccc2Cl)=NO1 (racemic) [Racemate of 32 (S config.) and 254 (R config.), 3-[(2,6-dichlorobenzyl)sulfinyl]-5,5-dimethyl-4,5-dihydroisoxazole, reference compound]
herbicidal effect in percent, ALOMY ([1]; 20 g of active compound/ha): 80%
herbicidal effect in percent, ALOMY ([1]; 80 g of active compound/ha): 90%
herbicidal effect in percent, ZEAMX (crop plant) ([7]; 20 g of active compound/ha): 0%
herbicidal effect in percent, ZEAMX (crop plant) ([7]; 80 g of active compound/ha): 10%
herbicidal effect in percent, POLCO ([8]; 80 g of active compound/ha): 20%
herbicidal effect in percent, VERPE ([9]; 20 g of active compound/ha): 0%

Cn1nc(C(F)(F)F)c(C[S+]([O-])C2=NOC(C)(C)C2)c1OC(F)F (racemic) [Racemate of 483 (S config.) and 664 (R config.), 3-({[5-(difluoromethoxy)-1-methyl-3-(trifluoromethyl)-1H-pyrazol-4-yl]methyl}sulfinyl)-5,5-dimethyl-4,5-dihydroisoxazole, reference compound]
herbicidal effect in percent, ALOMY ([1]; 20 g of active compound/ha): 0%
herbicidal effect in percent, ALOMY ([1]; 80 g of active compound/ha): 90%
herbicidal effect in percent, BRSNW (crop plant) ([2]; 20 g of active compound/ha): 0%
herbicidal effect in percent, BRSNW (crop plant) ([2]; 80 g of active compound/ha): 0%
herbicidal effect in percent, SETVI ([3]; 20 g of active compound/ha): 40%
herbicidal effect in percent, SETVI ([3]; 80 g of active compound/ha): 80%
herbicidal effect in percent, LOLMU ([4]; 20 g of active compound/ha): 0%
herbicidal effect in percent, LOLMU ([4]; 80 g of active compound/ha): 90%
